{"source": "patent US20150323548A1", "about": "“METHODS OF MONITORING THE MODULATION OF THE KINASE ACTIVITY OF FIBROBLAST GROWTH FACTOR RECEPTOR AND USES OF SAID METHODS” (Novartis AG, priority 2008, published 2015)", "key": {"[1]": {"system": "NIH3T3/FGFR3^S249C subcutaneous tumors", "assay": "Anti-tumor activity in subcutaneous NIH3T3/FGFR3^S249C tumor homograft model in nude mice", "type": "in vivo, mouse", "conditions": "p.o., qd, treatment day 8", "method": "(§1) Animals. Experiments were performed in female HsdNpa: Athymic Nude-nu mice obtained from Laboratory Animal Services, Novartis Pharma AG, Basel, Switzerland. The animals were kept under OHC conditions in Makrolon type II cages (maximum of 10 animals/cage) with 12 hour dark, 12 hour light conditions (lights on: 6 AM, lights off: 6 PM). The animals were fed food and water ad libitum. Experiments were conducted under license number 1762 and license number 1763 approved by the Basel Cantonal Veterinary Office. All invasive procedures were performed under Forene anesthesia.\nEstablishment of NIH3T3/FGFR3^S249C tumor homograft model in nude mice. The NIH3T3/FGFR3^S249C model has been validated and characterized as a subcutaneous murine tumor model for the in vivo profiling of FGFR inhibitors. The parental NIH3T3 cell line was originally derived by immortalization of mouse embryonic fibroblasts. NIH3T3/FGFR3^S249C cells were generated by infection of parental NIH3T3 fibroblasts with a retroviral vector expressing FGFR3 with the activating mutation S249C. Pools of G418 resistant NIH3T3^S249C cells were established and characterized for FGFR3 expression and tyrosine phosphorylation. To generate homografts, 5×10^5 NIH3T3/FGFR3^S249C cells resuspended in PBS were injected subcutaneously in nude mice (0.2 ml/mouse).\nEvaluation of anti-tumor activity. For the NIH3T3/FGFR3^S249C model, treatment was initiated when the average tumor volume reached approximately 100 mm^3. Tumor growth and body weights were monitored at regular intervals. The tumor sizes were measured manually with calipers. Tumor volume was estimated using the formula: (W×L×H×π/6), where width (W), length (L) and height (H) are the three largest diameters.\n(§2) Statistical analysis. When applicable, results are presented as mean±SEM. Tumor and body weight data were analyzed by ANOVA with post hoc Dunnett's test for comparison of treatment versus control group. The post hoc Tukey test was used for intra-group comparison. The level of significance of body weight change within a group between the start and the end of the experiment was determined using a paired t-test. Statistical analysis was performed using GraphPad prism 4.02 (GraphPad Software).\n(§3) As a measure of anti-tumor efficacy, the % T/C value is calculated at a certain number of days after treatment start according to: (mean change of tumor volume treated animals/mean change tumor volume control animals)×100. When applicable, % regressions are calculated according to the formula (mean change tumor volume/mean initial tumor volume)×100.\n(§4) Compound formulation and animal treatment. […] Vehicle consisted of PEG300/DSW. The application volumes were 10 ml/kg."}, "[2]": {"system": "RT112/lucl xenograft tumors", "assay": "Anti-tumor activity in RT112/lucl subcutaneous xenograft model in nude mice", "type": "in vivo, mouse", "conditions": "14 days; for Regr. (%) / Δ body weight (% ± SEM) / Δ body weight (mean g ± SEM) / Δ tumor volume (mean mm^3 ± SEM): p.o., qd", "method": "as §1\nEstablishment of RT112/lucl tumor xenograft model in nude mice. The parental RT-112 human urinary bladder transitional cell carcinoma cell line, which expressed high levels of wild type FGFR3, was initially derived from a patient with untreated primary urinary bladder carcinoma (histological grade G2, stage not recorded) in 1973 (Marshall et al., 1977, Masters et al., 1986). The original stock vial of RT112 cells used in this study was obtained from DSMZ ACC #418.\nThe cells were cultured in MEM medium supplemented with 10% Fetal Calf Serum, 1% sodium pyruvate and 1% L-glutamine. Cell culture reagents were purchased from BioConcept (Allschwil, Switzerland).\nThe parental RT112 cell line was infected with the retroviral expression vector pLNCX2/lucl and pools of G418 resistant cells were established and characterized for luciferase expression. The CMV driven expression of luciferase allows the detection of tumors using Xenogen IVIS™ cameras after injection of D-luciferin.\nFor the RT112/lucl model, treatments were initiated when the mean tumor volumes were approx. 180 mm^3 and mice were treated daily for 14 days. Body weights and tumor volumes were recorded twice a week. Tumor volumes were measured with calipers and determined according to the formula length×diameter^2×π/6.\nas §2, §3, §4"}, "[3]": {"system": "FGF23", "assay": "FGF23 ELISA in plasma of nude mice bearing RT112/lucl xenografts", "type": "in vivo, mouse", "conditions": "50 or 75 mg/kg/qd p.o., 14 days; two hours post-last dosing", "method": "Data are presented as means±SD.\nTissue processing for ex vive analysis. At the end of the experiments, 2 hours after the last compound administrations, tumor samples and blood were collected.\nAliquots of 50 mg tumor powder were weighed, placed on ice and immediately resuspended at a ratio of 1:10 (w/v) in ice-chilled lysis buffer (50 mM Tris pH 7.5, 150 mM NaCl, 1 mM EGTA, 5 mM EDTA, 1% Triton, 2 mM NaVanadate, 1 mM PMSF and protease inhibitors cocktail Roche #11873580001). Lysis was allowed to proceed for 30 min on ice, lysates were clarified by centrifugation at 12000×g for 15 min and protein concentration was determined using DC protein assay reagents (Bio Rad #500-0116) and a BSA standard. Blood was collected from the vena cava with a 23 gauge needle into a 1 ml syringe containing 70 μl of a 1000 IU/ml heparin solution. Blood was then stored on ice for 30 min until centrifugation (10,000 g, 5 min) and then the plasma was collected.\nFGF23 ELISA assay. […] Briefly, two specific murine monoclonal antibodies that bind to full-length FGF-23 are used: the first antibody is immobilized onto the microtiter plate well for capture and the second antibody is cojugated to HRP (horseradish peroxidase) for detection. In a first reaction, plasma or serum samples are added onto microtiter wells coated with the anti-FGF23 antibody to allow binding. […]"}, "[4]": {"assay": "Rat mechanistic study: histopathology and tolerability", "type": "in vivo"}, "[5]": {"system": "FGF23", "assay": "FGF23 ELISA in plasma of dogs", "type": "in vivo, dog", "conditions": "plasma 1 hour after last administration"}, "[6]": {"system": "FGF23", "assay": "FGF23 ELISA in serum of wistar rats", "type": "in vivo, rat", "conditions": "24 h post administration, p<0.01", "method": "Data are presented as means of n=6, ±SD.\nAnimals. Experiments were performed in female wistar rats furth WF/Ico\nThe application volumes were 5 ml/kg.\nBlood samples were drawn sublingually at 24 h post-compound administration. Plasma, as well as serum samples were prepared from each blood sample."}}, "note": "Marks after values point to notes of the source that are not given here."}
{"molecule": "CCN1CCN(c2ccc(Nc3cc(N(C)C(=O)Nc4c(Cl)c(OC)cc(OC)c4Cl)ncn3)cc2)CC1", "note": "[COMPOUND A, 3-(2,6-Dichloro-3,5-dimethoxy-phenyl)-1-{6-[4-(4-ethyl-perpazin-1-yl)-phenylamino]-pyrimidin-4-yl}-1-methyl urea]", "values": [{"measurement": "T/C (%)", "setting": "[1]; 10 mg/kg", "value": 34, "unit": "%"}, {"measurement": "Δ body weight (% ± SEM)", "setting": "[1]; 10 mg/kg", "value": "18.0 ± 3.2", "unit": "%"}, {"measurement": "Δ body weight (mean g ± SEM)", "setting": "[1]; 10 mg/kg", "value": "4.2 ± 0.7", "unit": "g"}, {"measurement": "Δ tumor volume (mean mm^3 ± SEM)", "setting": "[1]; 10 mg/kg", "value": "1320 ± 245* mm^3"}, {"measurement": "T/C (%)", "setting": "[1]; 30 mg/kg", "value": 4, "unit": "%"}, {"measurement": "Δ body weight (% ± SEM)", "setting": "[1]; 30 mg/kg", "value": "7.0 ± 3.1", "unit": "%"}, {"measurement": "Δ body weight (mean g ± SEM)", "setting": "[1]; 30 mg/kg", "value": "1.6 ± 0.7", "unit": "g"}, {"measurement": "Δ tumor volume (mean mm^3 ± SEM)", "setting": "[1]; 30 mg/kg", "value": "156 ± 56* mm^3"}, {"measurement": "Regr. (%)", "setting": "[1]; 50 mg/kg", "value": 40, "unit": "%"}, {"measurement": "Δ body weight (% ± SEM)", "setting": "[1]; 50 mg/kg", "value": "4.6 ± 2.2", "unit": "%"}, {"measurement": "Δ body weight (mean g ± SEM)", "setting": "[1]; 50 mg/kg", "value": "1.1 ± 0.5", "unit": "g"}, {"measurement": "Δ tumor volume (mean mm^3 ± SEM)", "setting": "[1]; 50 mg/kg", "value": "−43 ± 28* mm^3"}, {"measurement": "Regr. (%)", "setting": "[2]; 50 mg/kg", "value": 67, "unit": "%"}, {"measurement": "Δ body weight (% ± SEM)", "setting": "[2]; 50 mg/kg", "value": "10.8 ± 4.1", "unit": "%"}, {"measurement": "Δ body weight (mean g ± SEM)", "setting": "[2]; 50 mg/kg", "value": "2.6 ± 1.0", "unit": "g"}, {"measurement": "Δ tumor volume (mean mm^3 ± SEM)", "setting": "[2]; 50 mg/kg", "value": "−120 ± 12* mm^3"}, {"measurement": "Regr. (%)", "setting": "[2]; 75 mg/kg", "value": 74, "unit": "%"}, {"measurement": "Δ body weight (% ± SEM)", "setting": "[2]; 75 mg/kg", "value": "−4.0 ± 4.5", "unit": "%"}, {"measurement": "Δ body weight (mean g ± SEM)", "setting": "[2]; 75 mg/kg", "value": "-1.1 ± 1.1", "unit": "g"}, {"measurement": "Δ tumor volume (mean mm^3 ± SEM)", "setting": "[2]; 75 mg/kg", "value": "−133 ± 13* mm^3"}, {"measurement": "Tolerability of treatments", "setting": "[2]; 50 and 75 mg/kg per day orally", "value": "well tolerated"}, {"measurement": "Plasma levels of FGF23 vs vehicle-treated group", "setting": "[3]", "value": "increased plasma levels of FGF23"}, {"measurement": "Bone remodeling events (histopathology)", "setting": "[4]; 10 mg/kg/day 15 days + 4 days recovery, 20 mg/kg/day 3 days + 4 days recovery, 20 mg/kg/day 6 days", "value": "Signs of bone remodeling events were noted"}, {"measurement": "Soft tissue/vascular mineralization (histopathology)", "setting": "[4]; 10 mg/kg/qd groups", "value": "not observed"}, {"measurement": "Body weight effect leading to premature termination", "setting": "[4]; 20 mg/kg once daily p.o., after the 6th administration", "value": "severe body weight loss"}, {"measurement": "Soft tissue/vascular mineralization (histopathology)", "setting": "[4]; 20 mg/kg/day for 3 days after 4 recovery days, and after 6 days of treatment", "value": "Soft tissue/vascular mineralization was detected"}, {"measurement": "Growth plate thickening (histopathology)", "setting": "[4]; male rats, 10 and 20 mg/kg/day p.o., after three days of treatment", "value": "Growth plate thickening was detected"}, {"measurement": "FGF-23 cont.", "setting": "[5]; group 2, 3 → 100 mg/kg/day p.o., animal # 453 (male)", "value": 262.5, "unit": "pg/mL"}, {"measurement": "FGF-23 cont.", "setting": "[5]; group 2, 3 → 100 mg/kg/day p.o., animal # 454 (female)", "value": 211.3, "unit": "pg/mL"}, {"measurement": "FGF-23 cont.", "setting": "[5]; group 3, 30 mg/kg/day p.o., 15 days, animal # 455 (male)", "value": 534.3, "unit": "pg/mL"}, {"measurement": "FGF-23 cont.", "setting": "[5]; group 3, 30 mg/kg/day p.o., 15 days, animal # 456 (female)", "value": 322.7, "unit": "pg/mL"}, {"measurement": "FGF-23 cont.", "setting": "[5]; group 4, 300 mg/kg/day p.o., 8 days, animal # 457 (male)", "value": 824.6, "unit": "pg/mL"}, {"measurement": "FGF-23 cont.", "setting": "[5]; group 4, 300 mg/kg/day p.o., 8 days, animal # 458 (female)", "value": 614.8, "unit": "pg/mL"}, {"measurement": "serum levels of FGF23 vs vehicle-treated group", "setting": "[6]; single oral 10 mg/kg", "value": "statistically significant increased in serum levels of FGF23"}]}
{"molecule": "CCN(CC)CCCCNc1ncc2cc(-c3cc(OC)cc(OC)c3)c(NC(=O)NC(C)(C)C)nc2n1", "note": "[PD173074]", "values": [{"measurement": "serum levels of FGF23 vs vehicle-treated group", "setting": "[6]; single oral 50 mg/kg", "value": "statistically significant increased in serum levels of FGF23"}]}
